# Reference: patent US9174980B2, “Heterocyclic compounds as inhibitors of leukotriene production” (Boehringer Ingelheim International GmbH, priority 2012, dated 2015)
# Like-named read-outs stand apart in the source and are kept apart here.
# Assays:
# [1] = molecular target: T1, recombinant human FLAP protein (Homo sapiens, UniProt P20292); experiment: FLAP binding assay (Scintillation Proximity Assay, displacement of [125I]L-691,831); conditions: read-out: Human FLAP SPA Binding (IC50 nM)
# T1 construct: made in house; host or cells: Sf9 insect cells (membrane fraction, 100,000 x g pellet)
# T1 sequence (P20292 1-161): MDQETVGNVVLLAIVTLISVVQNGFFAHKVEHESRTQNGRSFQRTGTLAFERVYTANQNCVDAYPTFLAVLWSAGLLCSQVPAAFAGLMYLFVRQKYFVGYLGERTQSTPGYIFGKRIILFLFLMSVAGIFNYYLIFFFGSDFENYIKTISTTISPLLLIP
# Summary of the method: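 Membranes from sf9 cells expressing recombinant human FLAP (5 μg/well) on WGA SPA beads were incubated with compound and 0.08 nM [125I]L-691,831 in Tris pH 7.5 binding buffer, shaken 2 h. Displacement read by scintillation proximity; non-specific binding set with 10 μM unlabelled L-691,831.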
# [2] = system: synthesis of LTB4 in human whole blood; experiment: Human whole blood assay (calcimycin-stimulated LTB4 synthesis); assay type: cell-based; conditions: read-out: Human Whole Blood LTB4 Assay for FLAP (IC50 nM)
# Summary of the method: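 LTB4 in plasma was quantified by HTRF immunoassay. Before that, compound-treated heparinized whole blood (15 min, 37 °C) received 20 μM final calcimycin for a further 30 min at 37 °C, followed by centrifugation at 1500×g.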
SMILES,IC50 [1],IC50 ([2]; Homo sapiens),IC50 [2]
"Nc1ncc(-c2ccc(C3(c4cn(CC(=O)N5CC(O)C5)c5ccccc45)CCC3)cc2)cn1 [Example 133, 2-(3-{1-[4-(2-aminopyrimidin-5-yl)phenyl]cyclobutyl}-1H-indol-1-yl)-1-(3-hydroxyazetidin-1-yl)ethanone]",7.5 nM,> 5000 nM,–
"Nc1ncc(-c2ccc(C3(c4c[nH]c5c(C(=O)N6CC[C@@H](O)C6)cccc45)CCC3)cc2)cn1 [Example 134, (3-{1-[4-(2-aminopyrimidin-5-yl)phenyl]cyclobutyl}-1H-indol-7-yl)[(3R)-3-hydroxypyrrolidin-1-yl]methanone]",1.8 nM,270 nM,–
"Nc1ncc(-c2ccc(C3(c4c[nH]c5c(C(=O)N6CC[C@H](O)C6)cccc45)CCC3)cc2)cn1 [Example 135, (3-{1-[4-(2-aminopyrimidin-5-yl)phenyl]cyclobutyl}-1H-indol-7-yl)[(3S)-3-hydroxypyrrolidin-1-yl]methanone]",2.3 nM,500 nM,–
"Cn1c(C2(c3ccc(-c4cnc(N)nc4)cc3)CCC2)nc2ccccc21 [Example 136, 5-{4-[1-(1-methyl-1H-benzimidazol-2-yl)cyclobutyl]phenyl}pyrimidin-2-amine]",190 nM,> 5000 nM,–
"Nc1ncc(-c2ccc(C3(c4nc5ccccc5[nH]4)CCC3)cn2)cn1 [Example 137, 5-{5-[1-(1H-benzimidazol-2-yl)cyclobutyl]pyridin-2-yl}pyrimidin-2-amine]",410 nM,> 5000 nM,–
"Nc1ncc(-c2ccc(C3(c4nc5ccccc5o4)CCC3)cn2)cn1 [Example 138, 5-{5-[1-(1,3-benzoxazol-2-yl)cyclobutyl]pyridin-2-yl}pyrimidin-2-amine]",18 nM,990 nM,–
"Nc1ncc(-c2ccc(C3(c4nc5ccccc5[nH]4)CCC3)cc2)cn1 [Example 139, 5-{4-[1-(1H-benzimidazol-2-yl)cyclobutyl]phenyl}pyrimidin-2-amine]",27 nM,> 5000 nM,–
"Nc1ncc(-c2ccc(C3(c4nc5ccccc5s4)CCC3)cn2)cn1 [Example 140, 5-{5-[1-(1,3-benzothiazol-2-yl)cyclobutyl]pyridin-2-yl}pyrimidin-2-amine]",10 nM,> 5000 nM,–
"Cc1cc2c(C3(c4ccc(-c5cnc(N)nc5)cc4)CCC3)c[nH]c2cn1 [Example 141, 5-{4-[1-(5-methyl-1H-pyrrolo[2,3-c]pyridin-3-yl)cyclobutyl]phenyl}pyrimidin-2-amine]",5.8 nM,350 nM,–
"Nc1ncc(-c2ccc(C3(c4nnc(-c5ccc(F)cc5)[nH]4)CCC3)cn2)cn1 [Example 143, 5-(5-{1-[5-(4-fluorophenyl)-4H-1,2,4-triazol-3-yl]cyclobutyl}pyridin-2-yl)pyrimidin-2-amine]",12 nM,1500 nM,–
"COc1ccc(-c2nnc(C3(c4ccc(-c5cnc(N)nc5)cc4)CCC3)[nH]2)cn1 [Example 144, 5-(4-{1-[5-(6-methoxypyridin-3-yl)-4H-1,2,4-triazol-3-yl]cyclobutyl}phenyl)pyrimidin-2-amine]",4 nM,2500 nM,–
"COc1nccc2c(C3(c4ccc(-c5cnc(N)nc5)cc4)CCC3)c[nH]c12 [Example 145, 5-{4-[1-(7-methoxy-1H-pyrrolo[2,3-b]pyridin-3-yl)cyclobutyl]phenyl}pyrimidin-2-amine]",1.7 nM,–,150 nM
CN1CCN(C(=O)c2cccc3c(C4(c5ccc(-c6cnc(N)nc6)cc5)CCC4)c[nH]c23)CC1 [Example 146],1.7 nM,310 nM,–
NC(=O)Cn1cc(C2(c3ccc(-c4cnc(N)nc4)cc3)CCC2)c2ccccc21 [Example 147],7.9 nM,> 5000 nM,–
"Nc1ncc(-c2ccc(C3(c4cn(CC(=O)N5CCOCC5)c5ccccc45)CCC3)cc2)cn1 [Example 148, 2-(3-{1-[4-(2-aminopyrimidin-5-yl)phenyl]cyclobutyl}-1H-indol-1-yl)-1-(morpholin-4-yl)ethanone]",9 nM,3100 nM,–
"Nc1ncc(-c2ccc(C3(c4c[nH]c5c(C(=O)N6CCC6)cccc45)CCC3)cc2)cn1 [Example 149, (3-{1-[4-(2-aminopyrimidin-5-yl)phenyl]cyclobutyl}-1H-indol-7-yl)(azetidin-1-yl)methanone]",2 nM,110 nM,–
"Nc1ncc(-c2ccc(C3(c4c[nH]c5c(C(=O)O)cccc45)CCC3)cc2)cn1 [Example 150, 3-{1-[4-(2-aminopyrimidin-5-yl)phenyl]cyclobutyl}-1H-indole-7-carboxylic acid]",1.5 nM,> 5000 nM,–
"Cc1cc(C2(c3c[nH]c4ccccc34)CCC2)ccc1-c1cnc(N)nc1 [Example 151, 5-{4-[1-(1H-indol-3-yl)cyclobutyl]-2-methylphenyl}pyrimidin-2-amine]",7 nM,890 nM,–

SMILES,IC50 [1],IC50 ([2]; Homo sapiens),IC50 [2]
"Cc1nccc2c(C3(c4ccc(-c5cnc(N)nc5)cc4)CCC3)c[nH]c12 [Example 152, 5-{4-[1-(7-methyl-1H-pyrrolo[2,3-c]pyridin-3-yl)cyclobutyl]phenyl}pyrimidin-2-amine]",1.7 nM,55 nM,–
"COc1ncccc1-c1nnc(C2(c3ccc(-c4cnc(N)nc4)cc3)CCC2)[nH]1 [Example 153, 5-(4-{1-[5-(2-methoxypyridin-3-yl)-4H-1,2,4-triazol-3-yl]cyclobutyl}phenyl)pyrimidin-2-amine]",3.1 nM,1100 nM,–
"Cn1cc(C(c2ccc(-c3cnc(N)nc3)cc2)C(C)(C)C)c2ccccc21 (stereo not shown) [Example 154, 5-{4-[2,2-dimethyl-1-(1-methyl-1H-indol-3-yl)propyl]phenyl}pyrimidin-2-amine]",22 nM,> 5000 nM,–
Nc1ncc(-c2ccc(C3(c4c[nH]c5c(=O)[nH]ccc45)CCC3)cc2)cn1 [Example 155],2.5 nM,370 nM,–
"Cn1cc(C(c2ccc(-c3cnc(N)nc3)cn2)C(C)(C)C)c2ccccc21 (stereo not shown) [Example 156, 5-{6-[2,2-dimethyl-1-(1-methyl-1H-indol-3-yl)propyl]pyridin-3-yl}pyrimidin-2-amine]",260 nM,> 5000 nM,–
"Cc1ccc(-c2csc(C3(c4ccc(-c5cnc(N)nc5)cc4)CCC3)n2)cn1 [Example 157, 5-(4-{1-[4-(6-methylpyridin-3-yl)-1,3-thiazol-2-yl]cyclobutyl}phenyl)pyrimidin-2-amine]",16 nM,2600 nM,–
"Cc1ccc(-c2cc(C3(c4ccc(-c5cnc(N)nc5)cc4)CCC3)no2)cn1 [Example 158, 5-(4-{1-[5-(6-methylpyridin-3-yl)-1,2-oxazol-3-yl]cyclobutyl}phenyl)pyrimidin-2-amine]",5.2 nM,430 nM,–
COCCNC(=O)c1cccc2c(C3(c4ccc(-c5cnc(N)nc5)cc4)CCC3)c[nH]c12 [Example 159],1.9 nM,43 nM,–
"Cc1ccc(-c2cc(C(C)(c3ccc(-c4cnc(N)nc4)nc3)C(C)C)[nH]n2)cn1 (stereo not shown) [Example 160, 5-(5-{3-methyl-2-[5-(6-methylpyridin-3-yl)-1H-pyrazol-3-yl]butan-2-yl}pyridin-2-yl)pyrimidin-2-amine]",8.4 nM,1400 nM,–
"CC(C)C(C)(c1ccc(-c2cnc(N)nc2)nc1)c1cc(-c2cnn(C)c2)on1 (stereo not shown) [Example 161, 5-(5-{3-methyl-2-[5-(1-methyl-1H-pyrazol-4-yl)-1,2-oxazol-3-yl]butan-2-yl}pyridin-2-yl)pyrimidin-2-amine]",8.2 nM,160 nM,–
"COC(=O)c1c[nH]cc1C1(c2ccc(-c3cnc(N)nc3)cc2)CCC1 [Example 162, methyl 4-[1-[4-(2-aminopyrimidin-5-yl)phenyl]cyclobutyl]-1H-pyrrole-3-carboxylate]",210 nM,1500 nM,–
"Nc1ncc(-c2ccc(C3(c4c(-c5ccc(F)cc5)[nH]c5ccccc45)CCC3)cc2)cn1 [Example 163, 5-(4-{1-[2-(4-fluorophenyl)-1H-indol-3-yl]cyclobutyl}phenyl)pyrimidin-2-amine]",5.7 nM,590 nM,–
"Cn1cc(-c2coc(C3(c4ccc(-c5cnc(N)nc5)cc4)CCC3)n2)cn1 [Example 164, 5-(4-{1-[4-(1-methyl-1H-pyrazol-4-yl)-1,3-oxazol-2-yl]cyclobutyl}phenyl)pyrimidin-2-amine]",3.7 nM,93 nM,–
"COC(=O)c1[nH]c2ccccc2c1C1(c2ccc(-c3cnc(N)nc3)cc2)CCC1 [Example 165, methyl 3-{1-[4-(2-aminopyrimidin-5-yl)phenyl]cyclobutyl}-1H-indole-2-carboxylate]",6.1 nM,160 nM,–
"COC(=O)c1cc(-c2ccc(F)cc2)c(C2(c3ccc(-c4cnc(N)nc4)cc3)CCC2)[nH]1 [Example 166, methyl 5-{1-[4-(2-aminopyrimidin-5-yl)phenyl]cyclobutyl}-4-(4-fluorophenyl)-1H-pyrrole-2-carboxylate]",72 nM,3600 nM,–
"COC(=O)c1ccc(C2(c3ccc(-c4cnc(N)nc4)cc3)CCC2)[nH]1 [Example 167, methyl 5-[1-[4-(2-aminopyrimidin-5-yl)phenyl]cyclobutyl]-1H-pyrrole-2-carboxylate]",59 nM,3200 nM,–
"CC(C)C(C)(c1ccc(-c2cnc(N)nc2)nc1)c1nc(-c2cnn(C)c2)co1 (stereo not shown) [Example 168, 5-(5-{3-methyl-2-[4-(1-methyl-1H-pyrazol-4-yl)-1,3-oxazol-2-yl]butan-2-yl}pyridin-2-yl)pyrimidin-2-amine]",87 nM,390 nM,–
